Test results reported in patent US9096591B2, “Tetracyclic compounds” (Medivation Technologies, Inc., priority 2007, dated 2015).

Tests used:
AMPA receptors = experiment: AMPA-receptor activity: kainic acid-induced currents in Purkinje cells (patch-clamp); assay type: cell-based, rat; details: mean±SEM, control=100%
Procedure: The analysis of effects of the testing compounds on AMPA receptors was carried out using an electrophysiological patch-clamp method in whole cell configuration (Hamill et al., 1980) of the Purkinje cell fresh isolated from the cerebellum of juvenile rats (12-15 days). The isolation was carried out using a modified method (Kaneda et al., 1988) in which cerebral 400-600 μm sections were incubated for 60 min in the temperature controlled chamber in 10 mL of buffer solution (150 mM NaCl, 5 mM KCl, 2 mM CaCl2, 2 mM MgSO4.7H2O, 10 mM HEPES, 15 mM glucose, pH 7.42). The incubation solution was exchanged with the incubation buffer with pronase (2 mg/mL) and collagenase (1 mg/mL) for 70 min. After a 20 min wash with the original buffer, all sections were placed into the Petri dish and were separated using a Pasteur pipette. All solutions were constantly aerated with 100% O2 at 34° C. The composition of extracellular saline was: 150 mM NaCl, 5 mM KCl, 2.6 mM CaCl2, 2 mM MgSO4.7H2O, 10 mM HEPES, 15 mM glucose, pH 7.36. The transmembrane current was induced as a result of the activation of AMPA receptors by a superfusion with the agonist solution (kainic acid). The currents were measured using borosilicate microelectrodes (resistance […]) filled with 100 mM KCl, 11 mM EGTA, 1 mM CaCl2, 1 mM MgCl2, 10 mM HEPES, 5 mM ATP, pH 7.2. The currents were registered using EPC-9 (HEKA, Germany) and recorded with Pulse software package which was also purchased from HEKA. The analysis of observations was carried out using Pulsefit (HEKA, Germany) and the statistical significance was analyzed using a Student's T-test criteria. Data are presented as mean±SEM in % of control values.
Compounds of the invention were tested in 3-5 neurons. Every concentration of compound was repeated three-four times in every neuron. Data are presented as mean±SEM in % of Control values (Table 13+14, FIGS. 8-12). Control value=100%.

C57BL/6 mice [1] = experiment: Recognition of a new location of the known object (spatial memory); assay type: in vivo; details: 10 mg/kg
Source text: (§1) The object recognition test is based on the fact that mice and rats spontaneously explore new object or location of a known object a lot longer than the know object or a known location of an object. This test was first used in rats (Ennaceur A., Delacour J., 1988). It was further shown by others that this type of memory testing is suitable for mice (Dodart J. et al. 1997, Messier C. 1997, Pittenger C. et al., 2002, Ryabinin A. et al., 2002, Sargolini F. et al., 2003). The method of recognition of an object is divided in two stages. The first one involves the recognition of a new location of a known object, which is used to assess spatial memory. The second one includes a test for recognition of a new in order to evaluate the non-spatial memory (Gaffan D., 1992, Kolb B. et al., 1994, Steckler T., 1998). Currently, both are widely used to determine the effectiveness of newly synthesized drugs on memory.
All experiments were carried out on 3-4 months old males (C57BL/6 line) 22-26 g weight with 10 animals in each group. All animals were kept in the animal facility (5 animals per cage) on the 12×12 hours light cycle (8 am-8 pm) with free access to food and water. […] Brown glass vials were used as test objects which are 2.7 cm in diameter (1.1 inch) and 5.5 cm high (2.2 inch). All vials were treated with 85% ethanol 2-3 minutes before each testing. Animals were placed in the center of the chamber.
(§2) Dimebon and compounds of the invention were dissolved in distilled water and administered orally at 0.05 mL per 10 g of animal mass 1 hour before the training exercise. All animals in the control group were treated with the equivalent dose of vehicle. The testing was performed 48 hours after the training exercise because animals forget the location of the object during the 48-hour resting time.
On the first day animals were brought in the testing room so that they could adapt to the testing environment for 20-30 min. Subsequently, each animal was placed in the empty testing chamber for 10 min, which was wiped with alcohol beforehand. After that animals were transferred back into the […] and returned to the animal facility.
The next day after habituation, the animals were brought back into the testing room where they were weighed and injected with the testing compound. An hour after injection, each animal was placed into the testing camber which had two identical objects that were positioned 14.5 cm (5.7 inches) from the corners on the diagonal. The training exercise lasted for 15 min for each animal. Subsequently, each animal was placed back into the cage and returned into the animal house.
The testing procedure was performed 48 hours after the training exercise. During the procedure two objects were used as in the training exercise. […] The amount of time that each animal spent on exploration each object was determined with 0.1 sec accuracy using two electronic stopwatches for total of 10 min. […] The survey of the object was counted as positive if the nose of an animal was pointed within 2 cm or if the animal was touching the objected directly with the nose.
Due to fair differences in the amount of time that each animal surveyed the object, the percentage of the survey time for each animal was determined using this formula: tNL/(tFL+tNL)×100 (where t is time, NL—new location(object), and FL—familiar location(object)). […] Subsequently, the statistical significance was analyzed using a Student's t-test criteria.

C57BL/6 mice [2] = experiment: Recognition of the new object (non-spatial recognition memory); assay type: in vivo
Source text: as §1, §2
The following experiment was also performed on 3-4 months old males (C57BL/6 line) with 10 animals in each group. All animals were kept in the animal facility (5 animals per cage) on the 12×12 hours light cycle (8 am-8 pm) with free access to food and water. However, in this case a round bottom testing chamber 52 cm in diameter (20.5 inches) and 34 cm (13.4 inches) high was used. Similarly, brown glass vials were used as test objects which are 2.7 cm in diameter (1.1 inch) and 5.5 cm high (2.2 inch). The testing compounds were administered orally at 0.05 mL per 10 g of animal mass 1 hour before the training exercise. All animals in the control group were treated with the equivalent dose of vehicle. The testing was performed 48 hours after the training exercise because animals forget the location of the object during the 48-hour resting time.
The experimental procedure was identical to the previously described test (Recognition of a new location of a known object). The major difference is in the testing procedure which involved one known object (brown glass vial) and one unknown object. The second glass vial was substituted with metallic cylinder 3 cm (1.2 inches) in diameter and 4.5 cm (1.8 inches) high.
Due to fair differences in the amount of time that each animal surveyed the object, the percentage of the survey time for each animal was determined using this formula: tNL/(tFL+tNL)×100 (where t is time, NL—new location(object), and FL—familiar location(object)). As 100% was taken the total amount of time that animals explored both objects. Subsequently, the statistical significance was analyzed using a Student's t-test criteria.

[3] = 0.05 mg/kg, 1 hour prior to training, test 48 hours after training

Compound | kainic acid-induced currents in Purkinje cells, % of Control values (AMPA receptors; compound 3 × 10^−5 M) | kainic acid-induced currents in Purkinje cells, % of Control values (AMPA receptors; compound 10^−5 M) | kainic acid-induced currents in Purkinje cells, % of Control values (AMPA receptors; compound 10^−6 M) | kainic acid-induced currents in Purkinje cells, % of Control values (AMPA receptors; compound 10^−7 M) | kainic acid-induced currents in Purkinje cells, % of Control values (AMPA receptors; compound 10^−8 M) | time to explore the known object in a new location, % of the total time (C57BL/6 mice [1]) | time to explore the object in a known position, % of the total time (C57BL/6 mice [1]) | effect on memory in the new object recognition test (C57BL/6 mice [2]; 0.005 mg/kg) | time spent to recognize the known object, % of the total time (C57BL/6 mice [2]; [3]) | time spent to recognize the new object, % of the total time (C57BL/6 mice [2]; [3]) | effect on memory in the new object recognition test (C57BL/6 mice [2]; 0.5 mg/kg) | effect on memory in the new object recognition test (C57BL/6 mice [2]; 1-2 mg/kg)
CN1CCc2c(c3cc(Cl)ccc3n2CCc2nc(-c3ccccc3)cs2)C1 [Compound C1-8] | 90 ± 7% | 105 ± 8% | 123 ± 8% | 102 ± 3% | 100 ± 4% |  |  |  |  |  |  | 
Cc1ccc2c(c1)c1c(n2CCc2ccc(C)nc2)CCN(C)C1 [Dimebon, dimebon, reference compound] |  |  |  |  |  | 61.2±5% | 38.8±5% | memory activating effect | 34.4±4.4% | 65.6±4.4% | not statistically significant | the stimulating effect on memory returned
